Reference: publication PMC3006138, “Fexinidazole – A New Oral Nitroimidazole Drug Candidate Entering Clinical Development for the Treatment of Sleeping Sickness” (PLoS Neglected Tropical Diseases, 2010)
Several values for one entry are separate records, joined by “and”; a condition that tells them apart may be missing. Equal entries are not always repeated.

Columns and labels:
[1] = tested on: T. b. rhodesiense (STIB 900); test: In vitro trypanocidal assay (Alamar Blue); assay type: cell-based, Trypanosoma brucei rhodesiense; conditions: Trypanosoma brucei, 72 h; read-out: IC50
Experimental: (§1) 10 µL of Alamar Blue was added for the final 3 h to determine viability. […] The IC50 values were calculated from the sigmoidal inhibition curves. For cytotoxicity, 4×10^4/mL L-6 rat skeletal myoblast cells were used, and incubations and assessments carried out as above.

L-6 rat myoblast cells = test: Cytotoxicity assay; assay type: cell-based; conditions: 72 h, read-out: IC50
Experimental: as §1

[2] = tested on: hepatocytes from African American donors; test: Hepatocyte intrinsic clearance and metabolite profile; assay type: in vitro ADME, human; conditions: fexinidazole 10 µM
Experimental: Fexinidazole was incubated with cryopreserved hepatocytes from male CD-1 mice, male Sprague Dawley rats, male beagle dogs, male cynomolgus monkeys, and from pooled white or African-American human donor samples (purchased commercially), at concentrations of 1 µM and 10 µM. […] The incubated samples were analyzed by LC-MS after extraction into acetonitrile.
Fexinidazole sulfoxide, lot 1106-I-0170, 99.3% purity, and fexinidazole sulfone, lot 1106-I-0171, 99.9% purity, were provided by the Sponsor.
Cryopreserved hepatocytes of five single donors, lots EHI, REL, KSE […]
ZIJ and MRS, were purchased from In Vitro Technologies Inc (Baltimore, Maryland, USA).
The certificates of analysis are reported in Appendix 1.
Reagents and solvents were of analytical grade and obtained from Sigma-Aldrich (St. Louis, […]
7.5. In Vitro Incubations
On the day of the experiment a 10 mM stock solution of fexinidazole in DMSO was prepared and, within 3 hours, aliquots of this freshly prepared solution, after suitable dilution, were added to the incubation matrix, to reach fexinidazole final concentrations of 1 and 10 µM. The final percentage of DMSO was 0.01% in the incubation samples for the […]
The cryopreserved hepatocytes were thawed according to the supplier’s procedure and the number of viable cells was determined using the Trypan Blue exclusion method. Viabilities were 92% for lot EHI, 89% for lot REL, 82% for lot KSE, 86% for lot ZIJ and 86% for lot MRS in the intrinsic clearance study. In the metabolite profile study viabilities were 91% for lot EHI, 90% for lot REL, 85% for lot KSE, 84% for lot ZIJ and 87% for lot MRS.
Afterwards, the same amount of viable cells for each donor were pooled and used for the incubations of fexinidazole.
7.5.1. Intrinsic Clearance Study […]
µM with pooled human hepatocytes (1 million cells/mL) in a final incubation volume of 1 mL Leibovitz L-15 medium, at 37°C. Incubations were performed in duplicate in a 48-well plate under shaking. Sampling was performed using an automatic liquid handling system (Multiprobe II EX, Packard). At 0, 1, 5, 10, 15, 20, 30, 60 and 120 minutes, 50 µL aliquots of the incubates were taken, then 80 µL of ice-cold acetonitrile and 20 µL of 1 µM warfarin in acetonitrile (internal standard) were added, and samples centrifuged at 2000 rpm for 20 min. The supernatant was analyzed by LC-MS/MS. […]
The chemical stability of fexinidazole was checked by incubating the compound at 37°C in the medium alone at t = 0 and 120 minutes.
For the determination of phase I and phase II activities of hepatocytes, 7-ethoxycoumarin (7-ETC) 1 µM, and 7-hydroxycoumarin (7-HC) 30 µM were used as positive controls and incubated under the same conditions as fexinidazole. Aliquots of incubates were taken at 0, 1, 5, 10, 15, 20, 30, 60 and 120 minutes and processed as fexinidazole samples.
7.5.2. Metabolite Profile Study
For metabolite profiling, fexinidazole was incubated at a concentration of 10 µM with pooled human hepatocytes (1 million cells/mL) in a final incubation volume of 2 mL Leibovitz L-15 medium, at 37°C. Aliquots of the incubation samples were taken at t = 0, 30 and 120 minutes; the metabolism was stopped by the addition of an equal volume of cold acetonitrile and the samples centrifuged at 1100 rpm for 20 min. The supernatant was stored at -20°C until analysis. Control incubations were performed with the compound in the medium alone for 120 minutes.
7.6. Analysis of the Samples of Intrinsic Clearance Study
The analysis of the samples for intrinsic clearance determination was performed by an LC-MS/MS method, using the following conditions:
HPLC Equipment and Conditions
HPLC system 1100 binary pump (Agilent, Palo Alto, USA)
Autosampler 2777 (Waters)
Analytical column Guard Column SB-C8 4.6 x 12.5 mm, 5 µm (Zorbax)
Column temperature ambient
Mobile phase A 10 mM ammonium formate pH 4.0: acetonitrile (95:5, v:v)
Mobile phase B 10 mM ammonium formate pH 4.0: acetonitrile (5:95, v:v) […]
Gradient conditions Step Total time (min) flow (µL/min) %A % B […]

| SMILES | IC50 [1] | IC50 (L-6 rat myoblast cells) | % of total drug related material ([2]; 120 min) [%] | % of total drug related material ([2]; 30 min) [%] | % of total drug related material ([2]; t=0) [%] |
| --- | --- | --- | --- | --- | --- |
| Cn1c([N+](=O)[O-])cnc1COc1ccc(S(C)(=O)=O)cc1 [Fexinidazole sulfone] | 0.35 µg/mL to 0.4 µg/mL and 1.14 µM to 1.3 µM | > 90 µg/mL and > 289 µM | 1 | – | – |
| Cn1c([N+](=O)[O-])cnc1COc1ccc([S+](C)[O-])cc1 (stereo not drawn) [Fexinidazole sulfoxide] | 0.41 µg/mL to 0.49 µg/mL and 1.33 µM to 1.65 µM | > 90 µg/mL and > 305 µM | 98 | 98 | 23 |
| CSc1ccc(OCc2ncc([N+](=O)[O-])n2C)cc1 [Fexinidazole, 1-methyl-2-((p-(methylthio)phenoxy)methyl)-5-nitroimidazole] | 0.48 µg/mL to 0.82 µg/mL and 1.71 µM to 2.93 µM | > 90 µg/mL and > 322 µM | – | 1 | 77 |
